Legend:
[1] = Saturation concentration in olive oil:ethanol (9:1); assay type: physicochemical; settings: 25° C.
Experimental: Each of said mixtures was continuously and gently stirred for 10 minutes at ambient temperature (25° C.) and then maintained at rest for 60 minutes. The saturation concentration was considered to be that which was immediately less than a concentration where deposition was observed, but in which no deposition of the active ingredient was observed.

[2] = Tissue concentration of aprepitant by HPLC after oral or inhaled administration to rabbits; assay type: in vivo, New Zealand albino rabbits; settings: oral, 10 to 100 mg/kg per day
[3] = system: MMP-9; test: Immunohistochemistry of MMP-9 in respiratory tract tissue of sodium hypochlorite aerosol-treated rabbits; assay type: in vivo, New Zealand albino rabbits
Excerpt: It is known that the factors TGF-α, TGF-β 1, TGF-β 2, TGF-β 3, SPARC, MMP-3; MMP-7, MMP-9, MMP-11, MMP-13 and MMP-14, TGF-β, NF-kB, EGF, MMP-9, VEGF and TNF-α which are produced by lung cells (pneumocytes, fibroblasts and vascular endothelial cells) and inflammatory cells (macrophages, lymphocytes and polymorphonuclear leukocytes) are involved in the pathophysiology and development of said respiratory tract diseases. […] Herein, 27 New Zealand albino rabbits (New Zealand White Rabbit) with an initial average weight about 3 kg were used in this example. All subjects were administered an aerosol of a solution consisting of a mixture of water and sodium hypochlorite (35 g sodium hypochlorite per liter of water) at a rate of 5 mL of said solution by inhalation three times a day for 7 days (days 1 to 7 of experimentation). Subsequently, from days 3 to 7, a group of 3 rabbits (Group 1) was administered an oral dose of 10 mg/kg body weight per day, another group of 3 rabbits (Group 2) was administered an oral dose of 40 mg/kg body weight per day, a third group (Group 3) was administered an oral dose of 80 mg/kg body weight per day and a fourth group (Group 4) was administered an oral dose of 100 mg/kg body weight per day. […] This mixture was administered as an aerosol by inhalation, also from days 3 to 7, to a group of 3 rabbits (group 5) at a dose of 0.05 mg/kg body weight per day, to another group of three rabbits (Group 6) at a dose of 0.1 mg/kg body weight per day, to another group of three rabbits (Group 7) at a dose of 0.2 mg/kg body weight per day and to another group of three rabbits (Group 8) at a dose of 0.4 mg/kg body weight per day. A placebo consisting only of olive oil was administered from days 3 to 7 to a control group of 3 rabbits (placebo group). In parallel, 3 rabbits were kept under identical conditions but were not administered any treatment nor the aforementioned sodium hypochlorite solution (control group). […] On day 7 of the experiment all animals were euthanized and necropsied. […] Samples were taken at the peripheral level of the lung parenchyma, just below the pleural surface. Tissue samples were also taken from the nasal cavity, pharynx, larynx and bronchi. Immunohistochemistry studies were performed for all samples to evaluate the levels of the markers TGF-α, TGF-β 1, TGF-β 2, TGF-β 3 SPARC, MMP-3; MMP-7, MMP-9, MMP-11, MMP-14, TGF-β, TNF-α and VEGF. In said immunohistochemistry studies, a sample of each sample was dehydrated by treatment with increasing concentrations of ethanol and finally xylene. Subsequently said dried samples were embedded in paraffin, thus creating a block. Said paraffin blocks were cut on a microtome to a thickness of 5 μm, and the resulting sections (slices) were placed on slides suitable for conducting immunohistochemistry techniques. Subsequently, the sections were deparaffinised by immersion in xylene and then rehydrated through immersion in a series of solutions containing decreasing concentrations of ethanol and, finally, water. […] The samples were then allowed to cool to room temperature over 10 minutes. Endogenous peroxidase activity was blocked by treatment with 3% hydrogen peroxide over 30 min at room temperature. […] In order to verify the expression of NK1 receptors, the cell samples were incubated in the presence of anti-NK1 antibodies ([…], Sigma-Aldrich) diluted 1:1000 at 4° C. overnight. After this time they were washed in 0.05M Tris buffer at room temperature. Subsequently, Envision System-HRP (Dako) reagents were added for 30 min at room temperature. Once this time had expired, the samples were again washed with 0.05 M Tris buffer, and immunoreactivity was visualized by light microscopy with a chromogenic solution with 3,3'-diaminobenzidine (DAB+; Dako, USA). In order to differentiate the cell nuclei, these were lightly stained with haematoxylin. Samples that were not incubated with the primary antibody, but wherein this was replaced by a non-immune serum were used as negative controls. […]

Q: For `C[C@@H](OC1OCCN(Cc2nc(=O)[nH][nH]2)C1c1ccc(F)cc1)c1cc(C(F)(F)F)cc(C(F)(F)F)c1` (stereo in doubt) [Aprepitant, 5-([(2R,3S)-2-((R)-1-[3,5-bis(trifluoromethyl)phenyl]ethoxy)-3-(4-fluorophenyl)morpholino]methyl)-1H-1,2,4-triazol-3(2H)-one], which Saturation concentration [1] is on record?
A: Its Saturation concentration is 80 nM.

Q: What about the “relationship between dose and concentration in lung tissue” value [2] of the same compound?
A: The value was “non-linear and not proportional”.

Q: And the “Percent increase in MMP-9 with respect to the control group” value ([3]; bronchial tissue, Group 1, oral 10 mg/kg per day)?
A: Its value is 749.34%.

Q: What about the “Percent increase in MMP-9 with respect to the control group” value ([3]; bronchial tissue, Group 2, oral 40 mg/kg per day) of the same compound?
A: The value was 672.94%.

Q: And the “Percent increase in MMP-9 with respect to the control group” value ([3]; bronchial tissue, Group 3, oral 80 mg/kg per day)?
A: Its value is 495.87%.

Q: And the “Percent increase in MMP-9 with respect to the control group” value ([3]; bronchial tissue, Group 4, oral 100 mg/kg per day)?
A: The value was 305.34%.

Q: And the “% Med G5/C: percent increase in marker MMP-9 with respect to the control group” value ([3]; bronchial tissue, Group 5)?
A: The value was 673.45%.

Q: And the “% Med G6/C: percent increase in marker MMP-9 with respect to the control group” value ([3]; bronchial tissue, Group 6)?
A: The value was 452.61%.

Q: And the “% Med G7/C: percent increase in marker MMP-9 with respect to the control group” value ([3]; bronchial tissue, Group 7)?
A: Its value is 325.54%.

Q: What about the “% Med G8/C: percent increase in marker MMP-9 with respect to the control group” value ([3]; bronchial tissue, Group 8) of the same compound?
A: Its value is 153.34%.

Q: What about the “Percent increase in MMP-9 with respect to the control group” value ([3]; laryngeal tissue, Group 1, oral 10 mg/kg per day) of the same compound?
A: The value was 1,290.89%.

Q: And the “Percent increase in MMP-9 with respect to the control group” value ([3]; laryngeal tissue, Group 2, oral 40 mg/kg per day)?
A: The value was 983.98%.

Q: And the “Percent increase in MMP-9 with respect to the control group” value ([3]; laryngeal tissue, Group 3, oral 80 mg/kg per day)?
A: The value was 898.18%.

Q: And the “Percent increase in MMP-9 with respect to the control group” value ([3]; laryngeal tissue, Group 4, oral 100 mg/kg per day)?
A: The value was 788.78%.

Q: And the “Percent increase in MMP-9 with respect to the control group” value ([3]; laryngeal tissue, Group 5, inhalation 0.05 mg/kg per day)?
A: The value was 989.34%.

Q: What about the “Percent increase in MMP-9 with respect to the control group” value ([3]; laryngeal tissue, Group 6, inhalation 0.1 mg/kg per day) of the same compound?
A: Its value is 567.37%.

Q: What about the “Percent increase in MMP-9 with respect to the control group” value ([3]; laryngeal tissue, Group 7, inhalation 0.2 mg/kg per day) of the same compound?
A: The value was 256.47%.

Q: And the “Percent increase in MMP-9 with respect to the control group” value ([3]; laryngeal tissue, Group 8, inhalation 0.4 mg/kg per day)?
A: The value was 123.23%.

Q: And the “Percent increase in MMP-9 with respect to the control group” value ([3]; lung tissue, Group 1, oral 10 mg/kg per day)?
A: Its value is 566.19%.

Q: What about the “Percent increase in MMP-9 with respect to the control group” value ([3]; lung tissue, Group 2, oral 40 mg/kg per day) of the same compound?
A: Its value is 384.44%.

Q: And the “Percent increase in MMP-9 with respect to the control group” value ([3]; lung tissue, Group 3, oral 80 mg/kg per day)?
A: The value was 338.57%.

Q: What about the “Percent increase in MMP-9 with respect to the control group” value ([3]; lung tissue, Group 4, oral 100 mg/kg per day) of the same compound?
A: The value was 326.02%.

Q: What about the “Percent increase in MMP-9 with respect to the control group” value ([3]; lung tissue, Group 5, inhalation 0.05 mg/kg per day) of the same compound?
A: Its value is 570.94%.

Q: What about the “Percent increase in MMP-9 with respect to the control group” value ([3]; lung tissue, Group 6, inhalation 0.1 mg/kg per day) of the same compound?
A: The value was 267.29%.

Q: What about the “Percent increase in MMP-9 with respect to the control group” value ([3]; lung tissue, Group 7, inhalation 0.2 mg/kg per day) of the same compound?
A: The value was 183.98%.

Q: And the “Percent increase in MMP-9 with respect to the control group” value ([3]; lung tissue, Group 8, inhalation 0.4 mg/kg per day)?
A: Its value is 156.83%.

Q: What about the “Percent increase in MMP-9 with respect to the control group” value ([3]; nasal cavity tissue, Group 1, oral 10 mg/kg per day) of the same compound?
A: The value was 1,355.64%.

Q: And the “Percent increase in MMP-9 with respect to the control group” value ([3]; nasal cavity tissue, Group 2, oral 40 mg/kg per day)?
A: The value was 768.75%.

Q: What about the “Percent increase in MMP-9 with respect to the control group” value ([3]; nasal cavity tissue, Group 3, oral 80 mg/kg per day) of the same compound?
A: Its value is 511.58%.

Q: And the “Percent increase in MMP-9 with respect to the control group” value ([3]; nasal cavity tissue, Group 4, oral 100 mg/kg per day)?
A: The value was 328.92%.

Q: And the “Percent increase in MMP-9 with respect to the control group” value ([3]; nasal cavity tissue, Group 5, inhalation 0.05 mg/kg per day)?
A: The value was 1,289.77%.

Q: What about the “Percent increase in MMP-9 with respect to the control group” value ([3]; nasal cavity tissue, Group 6, inhalation 0.1 mg/kg per day) of the same compound?
A: The value was 588.48%.

Q: And the “Percent increase in MMP-9 with respect to the control group” value ([3]; nasal cavity tissue, Group 7, inhalation 0.2 mg/kg per day)?
A: Its value is 291.36%.

Q: And the “Percent increase in MMP-9 with respect to the control group” value ([3]; nasal cavity tissue, Group 8, inhalation 0.4 mg/kg per day)?
A: Its value is 143.08%.

Q: And the “Percent increase in MMP-9 with respect to the control group” value ([3]; pharyngeal tissue, Group 1, oral 10 mg/kg per day)?
A: The value was 1,102.28%.

Q: What about the “Percent increase in MMP-9 with respect to the control group” value ([3]; pharyngeal tissue, Group 2, oral 40 mg/kg per day) of the same compound?
A: Its value is 945.34%.

Q: And the “Percent increase in MMP-9 with respect to the control group” value ([3]; pharyngeal tissue, Group 3, oral 80 mg/kg per day)?
A: Its value is 789.45%.

Q: What about the “Percent increase in MMP-9 with respect to the control group” value ([3]; pharyngeal tissue, Group 4, oral 100 mg/kg per day) of the same compound?
A: The value was 561.21%.

Q: And the “Percent increase in MMP-9 with respect to the control group” value ([3]; pharyngeal tissue, Group 5, inhalation 0.05 mg/kg per day)?
A: The value was 998.67%.

Q: What about the “Percent increase in MMP-9 with respect to the control group” value ([3]; pharyngeal tissue, Group 6, inhalation 0.1 mg/kg per day) of the same compound?
A: The value was 505.32%.

Q: What about the “Percent increase in MMP-9 with respect to the control group” value ([3]; pharyngeal tissue, Group 7, inhalation 0.2 mg/kg per day) of the same compound?
A: Its value is 212.24%.

Q: What about the “Percent increase in MMP-9 with respect to the control group” value ([3]; pharyngeal tissue, Group 8, inhalation 0.4 mg/kg per day) of the same compound?
A: Its value is 121.23%.
